Results on two molecules are retold here after US5457119A, “A89271 factors and processes for their production” (priority 1994, dated 1995).

Values after ≈ are worked out from the molar mass of the structure shown.

What all share (assay type): cell-based
Experiment [1] relates to Candida albicans. As to the kind of experiment: In vitro antifungal activity, RPMI and 10% fetal calf serum broth. From the text:
(§1) In those tables, a dash or "N.T." means the material was not tested.

Experiment [2] deals with Trichophyton mentagrophytes. Described as above.
Text: as §1

Experiment [3] concerns Aspergillus fumigatus. As to the kind of experiment: In vitro antifungal activity, Sabouraud's and Dextrose broth.
Text: as §1

For experiment [4], the system named is Candida albicans. Described as above.
Text: as §1

Experiment [5] concerns Trichophyton mentagrophytes. The description is as above.
Text: as §1

In experiment [6] the test system is L1210 murine leukemia cell line. As to the kind of experiment: Disk diffusion soft agar colony formation assay. The settings on record: 200 zone units = 6 MM. As for the experimental part:
(§2) The method of performing the disk diffusion soft agar colony […] assay is described in Chapter 3 of Cytotoxic Anticancer Drugs: Models and Concepts for Drug Discovery and Development (Frederick A. Valeriote, et al., eds., 1990). In addition to the procedure taught in this reference, one mL ethanol was added to each dry factor in a vial, and the desired concentration of solution was placed on a paper disk. The disk was dried and then placed on soft agar plates as described in the reference.
L1210 = murine leukemia cell line
(§3) ^2 Measurement in zone units; 200 zone units = 6 MM
(In general: A growth-free zone around the sample is the usual read-out of agar diffusion tests.)

The test system of experiment [7] is C38 murine colon solid tumor cell line. As to the kind of experiment: Disk diffusion soft agar colony formation assay. To be noted: 200 zone units = 6 MM. The method, then: as §2
C38 = murine colon solid tumor cell line
as §3

The subject of experiment [8] is Mam17 murine mammary solid tumor cell line. As to the kind of experiment: Disk diffusion soft agar colony formation assay. To be noted: factor line, no dose given, 200 zone units = 6 MM. The method, then:
as §2
Mam17 = murine mammary solid tumor cell line
as §3

Experiment [9] concerns CX-1 human colon solid tumor cell line. As to the kind of experiment: Disk diffusion soft agar colony formation assay. To be noted: factor line, no dose given, 200 zone units = 6 MM. As for the experimental part:
as §2
CX1 = human colon solid tumor cell line
as §3

Experiment [10] relates to H8 human colon solid tumor cell line. The experiment is described as follows: Disk diffusion soft agar colony formation assay. The settings on record: 200 zone units = 6 MM. As for the experimental part: as §2
H8 = human colon solid tumor cell line
as §3

Experiment [11] deals with LML "Low Malignancy Line" fibroblast. The experiment is described as follows: Disk diffusion soft agar colony formation assay. To be noted: 200 zone units = 6 MM. The method, then:
as §2
LML = "Low Malignancy Line" fibroblast
as §3

For experiment [12], the system named is P03 murine pancreatic solid tumor cell line. The experiment is described as follows: Disk diffusion soft agar colony formation assay. To be noted: 200 zone units = 6 MM. As for the experimental part:
as §2
P03 = murine pancreatic solid tumor cell line
as §3

Setting [13] is: Table 3, RPMI & 10% Fetal Calf Serum Broth.
[14] abbreviates: Table 1, RPMI and 10% Fetal Calf Serum Broth.
Setting [15] is: unlabelled line below the (45 ug) line.

With `[C-]#[N+]C1C2c3c(C(C)(C)C=C)[nH]c4cccc(c34)C(C)(C)C2CC(Cl)C1(C)C=C` (centres unmarked) [A89271 B], the MIC in [1] (setting [13]) is 1.25 µg/mL (≈ 3.07 µM); in [2] (setting [13]) it was 2.5 µg/mL (≈ 6.14 µM); in [3] (Table 4) it was 20 µg/mL (≈ 49.1 µM); in experiment [4] (Table 4), 1.25 µg/mL (≈ 3.07 µM); in experiment [5] (Table 4), greater than 80 µg/mL. Also, the “Measurement in zone units” value in experiment [6] (20 ug per disk) is given as 100-200 zone units; in experiment [6] (80 ug per disk) it was 200-250 zone units; in [6] (factor line, no dose given) it was 210 zone units; in experiment [7] (20 ug per disk), 260-400 zone units; in experiment [7] (80 ug per disk), 430 zone units; in experiment [8] it was 220 zone units. Further, the “Measurement in zone units” value in [9] is on record as 220 zone units; in [10] (20 ug per disk), 180 zone units; in experiment [10] (80 ug per disk), 200-300 zone units; in experiment [11] (20 ug per disk) it was 0-100 zone units; in experiment [11] (80 ug per disk), 80-250 zone units; in experiment [11] (factor line, no dose given), 0-250 zone units.
Take `[C-]#[N+]C12C3OC3C(C)(C)C3=Nc4cccc5c4C3(O)C1(O)C(CC(Cl)C2(C)C=C)C5(C)C` (centres unmarked) [A89271 A]: the MIC is 2.5 µg/mL (≈ 5.52 µM) in [1] (setting [14]); greater than 20 µg/mL in experiment [2] (setting [14]); 80 µg/mL (≈ 177 µM) in [3] (Table 2); 2.5 µg/mL (≈ 5.52 µM) in experiment [4] (Table 2); 10 µg/mL (≈ 22.1 µM) in [5] (Table 2). For the same molecule, the “Measurement in zone units” value is given as 200-250 zone units in [6] (9 ug per disk); 250-320 zone units in experiment [6] (11 ug per disk); 0-400 zone units in experiment [6] (factor line, no dose given); 500 zone units in experiment [12] (9 ug per disk); 650 zone units in experiment [12] (factor line, no dose given); 480 zone units in [7] (9 ug per disk). Also, the “Measurement in zone units” value in experiment [7] (11 ug per disk) is 610 zone units; in [7] (45 ug per disk) it was 670 zone units; in experiment [7] (factor line, no dose given), 650 zone units; in experiment [7] (setting [15]), 750 zone units; in experiment [9], 600-650 zone units; in [10] (9 ug per disk), 200-330 zone units. For the same molecule, the “Measurement in zone units” value is on record as 250-420 zone units in [10] (11 ug per disk), 300-470 zone units in [10] (setting [15]), 0-300 zone units in [11] (11 ug per disk) and 0-300 zone units in [11] (setting [15]).

For orientation: MIC means the lowest concentration found to suppress growth.
